Data as given in PMC11418745 (Molecular cell, 2023).
Read-outs that look alike come from different tables or passages of the source.

Columns and labels:
[1] = molecular target: T1, SIR2-HerA complex (SIR2 NADase site) (Escherichia coli, UniProt A0ABF7PQ24); assay: cryo-EM structure, […] Å; format: binding; conditions: SIR2 active site; 12:6 complex (also 12:5 8SUB and 12:4 8SUW)
[2] = molecular target: SIR2-HerA complex (HerA nucleotide site) (Escherichia coli, UniProt A0ABF7PQ25); assay: ATPase kit, colorimetric phosphate; format: biochemical; conditions: 20 mM Tris pH 8.0, 75 mM KCl, 2 mM MgCl2, 37 °C
EcSIR2 dodecamer = EcSIR2 dodecamer (Escherichia coli, UniProt A0ABF7PQ24); assay: cryo-EM structure, […] Å; format: binding; conditions: active site of SIR2 dodecamer without HerA; not hydrolysed
[3] = molecular target: T1, SIR2-HerA complex (SIR2 NADase site); assay: ε-NAD+ fluorescence NADase assay; format: biochemical; conditions: 0.5 μM protein, 20 mM Tris pH 8.0, 75 mM KCl, 2 mM MgCl2, 33 °C
cryo-EM structure [4] = molecular target: the molecule itself; assay: cryo-EM structure
cryo-EM structure [5] = molecular target: the molecule itself; assay: cryo-EM structure; remark: listed apart in the source

Molecule: Nc1ncnc2c1ncn2[C@@H]1O[C@H](COP(=O)(O)OP(=O)(O)OC[C@H]2OC(O)[C@H](O)[C@@H]2O)[C@@H](O)[C@H]1O (stereo partly shown) [ADPR]
- cryo-EM structure, 2.83 Å [1]: an ADPR molecule, the product of NAD^+ hydrolysis, occupied the active site of EcSIR2

Molecule: Nc1ncnc2c1ncn2[C@@H]1O[C@H](COP(=O)(O)OP(=O)(O)OP(=O)(O)O)[C@@H](O)[C@H]1O [ATP]
- ATPase kit, colorimetric phosphate [2]: the SIR2-HerA complex, not HerA alone, can hydrolyze ATP

Molecule: NC(=O)c1ccc[n+]([C@@H]2O[C@H](COP(=O)(O)OP(=O)(O)OC[C@H]3O[C@@H](n4cnc5c(N)ncnc54)[C@H](O)[C@@H]3O)[C@@H](O)[C@H]2O)c1 [NAD^+]
- cryo-EM structure, 3.6 Å (EcSIR2 dodecamer): identified an NAD^+ molecule in the active site of EcSIR2

Molecule: NC(=O)c1ccc[n+]([C@@H]2O[C@H](COP(=O)(O)OP(=O)(O)OC[C@H]3O[C@@H](n4cnc5c4ncn4ccnc54)[C@H](O)[C@@H]3O)[C@@H](O)[C@H]2O)c1 [ε-NAD^+]
- ε-NAD+ fluorescence NADase assay [3]: To test the NADase activities of the SIR2-HerA complex and SIR2 alone, ε-NAD^+ assays

B1: E. coli HerA (EcHerA) co-expressed with SIR2 as the SIR2-HerA complex (enzyme)
chain: MSLFKLTEISAIGYVVGLEGERIRINLHEGLQGRLASHRKGVSSVTQPGDLIGFDAGNILVVARVTDMAFVEADKAHKANVGTSDLADIPLRQIIAYAIGFVKRELNGYVFISEDWRLPALGSSAVPLTSDFLNIIYSIDKEELPKAVELGVDSRTKTVKIFASVDKLLSRHLAVLGSTGYGKSNFNALLTRKVSEKYPNSRIVIFDINGEYAQAFTGIPNVKHTILGESPNVDSLEKKQQKGELYSEEYYCYKKIPYQALGFAGLIKLLRPSDKTQLPALRNALSAINRTHFKSRNIYLEKDDGETFLLYDDCRDTNQSKLAEWLDLLRRRRLKRTNVWPPFKSLATLVAEFGCVAADRSNGSKRDAFGFSNVLPLVKIIQQLAEDIRFKSIVNLNGGGELADGGTHWDKAMSDEVDYFFGKEKGQENDWNVHIVNMKNLAQDHAPMLLSALLEMFAEILFRRGQERSYPTVLLLEEAHHYLRDPYAEIDSQIKAYERLAKEGRKFKCSLIVSTQRPSELSPTVLAMCSNWFSLRLTNERDLQALRYAMESGNEQILKQISGLPRGDAVAFGSAFNLPVRISINQARPGPKSSDAVFSEEWANCTELRC
- stoichiometry N (cryo-EM structure [4]): 6

B2: E. coli SIR2 (EcSIR2) co-expressed with HerA as the SIR2-HerA complex (enzyme)
chain: MSIYQGGNKLNEDDFRSHVYSLCQLDNVGVLLGAGASVGCGGKTMKDVWKSFKQNYPELLGALIDKYLLVSQIDSDNNLVNVELLIDEATKFLSVAKTRRCEDEEEEFRKILSSLYKEVTKAALLTGEQFREKNQGKKDAFKYHKELISKLISNRQPGQSAPAIFTTNYDLALEWAAEDLGIQLFNGFSGLHTRQFYPQNFDLAFRNVNAKGEARFGHYHAYLYKLHGSLTWYQNDSLTVNEVSASQAYDEYINDIINKDDFYRGQHLIYPGANKYSHTIGFVYGEMFRRFGEFISKPQTALFINGFGFGDYHINRIILGALLNPSFHVVIYYPELKEAITKVSKGGGSEAEKAIVTLKNMAFNQVTVVGGGSKAYFNSFVEHLPYPVLFPRDNIVDELVEAIANLSKGEGNVPF
- stoichiometry N (cryo-EM structure [4]): 12

B3: E. coli SIR2 (EcSIR2), expressed alone (enzyme)
chain: MSIYQGGNKLNEDDFRSHVYSLCQLDNVGVLLGAGASVGCGGKTMKDVWKSFKQNYPELLGALIDKYLLVSQIDSDNNLVNVELLIDEATKFLSVAKTRRCEDEEEEFRKILSSLYKEVTKAALLTGEQFREKNQGKKDAFKYHKELISKLISNRQPGQSAPAIFTTNYDLALEWAAEDLGIQLFNGFSGLHTRQFYPQNFDLAFRNVNAKGEARFGHYHAYLYKLHGSLTWYQNDSLTVNEVSASQAYDEYINDIINKDDFYRGQHLIYPGANKYSHTIGFVYGEMFRRFGEFISKPQTALFINGFGFGDYHINRIILGALLNPSFHVVIYYPELKEAITKVSKGGGSEAEKAIVTLKNMAFNQVTVVGGGSKAYFNSFVEHLPYPVLFPRDNIVDELVEAIANLSKGEGNVPF
- stoichiometry N (cryo-EM structure [5]): 12
